{
  "source": "patent US20250281629A1",
  "about": "“COMPOSITIONS AND METHODS FOR ANTI-PHOSPHOCHOLINE ACTIVE IMMUNOTHERAPY” (Duke University, priority 2022, published 2025)",
  "test_system": "ZO-1",
  "assay": "Immunofluorescence of colon tight junction protein ZO-1",
  "assay_type": "in vivo, mouse",
  "details": "week 5; vs PBS control mice",
  "procedure": "Immunofluorescence Imaging and Analysis. Immunofluorescence was conducted on sections from proximal colon samples frozen in OCT and sectioned. Slides were first thawed and outlined with a hydrophobic pen (ImmEdge Hydrophobic Barrier PAP Pen, Vector Labs, H-4000) then fixed with 4% paraformaldehyde for 10 min at room temperature. The slides were washed three times with wash buffer (1×PBS+100 mM CaCl2+100 mM MgCl) for 10 min at room temperature then incubated in a blocking solution containing 0.3% Triton X-100 and 10% normal donkey serum in 1×PBS+100 mM CaCl2+100 mM MgCl for 1 h at room temperature. The slides were then incubated in the primary antibodies (rat anti-ZO-1, clone R40.70, Fisher Scientific, MABT11; rabbit anti-occludin, clone EPR20992, Abcam, ab216327) diluted 1:100 in the blocking solution overnight at 4° C. The slides were washed three times with wash buffer for 10 min at room temperature. They were then incubated in the secondary antibodies (donkey anti-rat Alexa Fluor™ 568, Thermo Fisher, A78946; donkey anti-rabbit Alexa Fluor™ 647, Thermo Fisher, A31573) and nuclear marker DAPI diluted 1:500 in the blocking solution for 2 h at room temperature. […] The intensities of each marker were quantified using ImageJ and expressed as the integrated density of the fluorescent signal normalized to the area fraction of DAPI positive pixels. […]",
  "note": "Where no end group is shown, it is not given here.",
  "data": [
    {"substance": "(C11H22NO6P)n-CCCCSGSG-QQKFQFQFEQQ-NH2 (CCCCSGSGQQKFQFQFEQQ-NH2; not fully specified; cysteine pairing not given here; also: phosphorylcholine groups (C11H22NO6P) n=1-4, attachment not placed) [PCM-Q11, linear multi-PC conjugate]", "values": [
      {"measurement": "ZO-1 levels in colon after immunization", "result": "not significantly different"}
    ]}
  ]
}
